{"source": "PubChem BioAssay (NCI)", "assay_in_all_cases": "growth of human tumour cells (NCI), 48 h", "key": {"CAKI-1 renal": {"tested_on": "CAKI-1 renal"}, "DLD-1 colon": {"tested_on": "DLD-1 colon"}, "DMS 114 small cell lung": {"tested_on": "DMS 114 small cell lung"}, "HOP-62 NSCLC": {"tested_on": "HOP-62 NSCLC"}, "KM20L2 colon": {"tested_on": "KM20L2 colon"}, "LXFL 529 NSCLC": {"tested_on": "LXFL 529 NSCLC"}, "M19-MEL melanoma": {"tested_on": "M19-MEL melanoma"}, "RPMI-8226 leukemia": {"tested_on": "RPMI-8226 leukemia"}, "SNB-78 CNS": {"tested_on": "SNB-78 CNS"}, "TK-10 renal": {"tested_on": "TK-10 renal"}, "DMS 273 small cell lung": {"tested_on": "DMS 273 small cell lung"}, "MCF7 breast": {"tested_on": "MCF7 breast"}, "MDA-MB-435": {"tested_on": "MDA-MB-435"}}, "note": "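Following 48 hours of exposure in 96-well plates, responses at five concentrations were used to interpolate endpoints linearly. TGI is the concentration that stops growth completely.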", "data": [{"compound": "O=C(Nc1ccc(Cl)cc1Cl)c1c/c(=N\\O)c2ccc(O)cc2o1", "values": [{"measurement": "TGI", "setting": "CAKI-1 renal", "result": "> 100", "unit": "µM"}, {"measurement": "TGI", "setting": "DLD-1 colon", "result": "> 100", "unit": "µM"}, {"measurement": "TGI", "setting": "DMS 114 small cell lung", "result": "> 100", "unit": "µM"}, {"measurement": "TGI", "setting": "HOP-62 NSCLC", "result": "> 100", "unit": "µM"}, {"measurement": "TGI", "setting": "KM20L2 colon", "result": "> 100", "unit": "µM"}, {"measurement": "TGI", "setting": "LXFL 529 NSCLC", "result": "> 100", "unit": "µM"}, {"measurement": "TGI", "setting": "M19-MEL melanoma", "result": "> 100", "unit": "µM"}, {"measurement": "TGI", "setting": "RPMI-8226 leukemia", "result": "> 100", "unit": "µM"}, {"measurement": "TGI", "setting": "SNB-78 CNS", "result": "> 100", "unit": "µM"}, {"measurement": "TGI", "setting": "TK-10 renal", "result": "> 100", "unit": "µM"}]}, {"compound": "O=C(O)C(=O)/C=C\\c1ccc(Cl)cc1", "values": [{"measurement": "TGI", "setting": "CAKI-1 renal", "result": "> 100", "unit": "µM"}, {"measurement": "TGI", "setting": "DLD-1 colon", "result": "> 100", "unit": "µM"}, {"measurement": "TGI", "setting": "DMS 114 small cell lung", "result": "> 100", "unit": "µM"}, {"measurement": "TGI", "setting": "DMS 273 small cell lung", "result": "> 100", "unit": "µM"}, {"measurement": "TGI", "setting": "HOP-62 NSCLC", "result": "> 100", "unit": "µM"}, {"measurement": "TGI", "setting": "KM20L2 colon", "result": "> 100", "unit": "µM"}, {"measurement": "TGI", "setting": "LXFL 529 NSCLC", "result": "> 100", "unit": "µM"}, {"measurement": "TGI", "setting": "M19-MEL melanoma", "result": "> 100", "unit": "µM"}, {"measurement": "TGI", "setting": "RPMI-8226 leukemia", "result": "> 100", "unit": "µM"}, {"measurement": "TGI", "setting": "SNB-78 CNS", "result": "> 100", "unit": "µM"}, {"measurement": "TGI", "setting": "TK-10 renal", "result": "> 100", "unit": "µM"}]}, {"compound": "COC(=O)C1=C(SC)SC2(C(=O)OC)C3C=C(C)C4C(N13)C42C(=O)OC", "note": "(stereo unspecified)", "values": [{"measurement": "TGI", "setting": "CAKI-1 renal", "result": "> 100", "unit": "µM"}, {"measurement": "TGI", "setting": "DLD-1 colon", "result": "> 100", "unit": "µM"}, {"measurement": "TGI", "setting": "DMS 114 small cell lung", "result": "> 100", "unit": "µM"}, {"measurement": "TGI", "setting": "DMS 273 small cell lung", "result": "> 100", "unit": "µM"}, {"measurement": "TGI", "setting": "HOP-62 NSCLC", "result": "> 100", "unit": "µM"}, {"measurement": "TGI", "setting": "KM20L2 colon", "result": "> 100", "unit": "µM"}, {"measurement": "TGI", "setting": "LXFL 529 NSCLC", "result": "> 100", "unit": "µM"}, {"measurement": "TGI", "setting": "M19-MEL melanoma", "result": "> 100", "unit": "µM"}, {"measurement": "TGI", "setting": "RPMI-8226 leukemia", "result": "> 100", "unit": "µM"}, {"measurement": "TGI", "setting": "TK-10 renal", "result": "> 100", "unit": "µM"}]}, {"compound": "O=C(O)/C=C/C(=O)Nc1cccc2c1-c1ccccc1C2=O", "values": [{"measurement": "TGI", "setting": "CAKI-1 renal", "result": "> 100", "unit": "µM"}, {"measurement": "TGI", "setting": "HOP-62 NSCLC", "result": "> 100", "unit": "µM"}, {"measurement": "TGI", "setting": "MCF7 breast", "result": "> 100", "unit": "µM"}, {"measurement": "TGI", "setting": "MDA-MB-435", "result": 9.14, "unit": "µM"}, {"measurement": "TGI", "setting": "RPMI-8226 leukemia", "result": 62.6, "unit": "µM"}, {"measurement": "TGI", "setting": "TK-10 renal", "result": "> 29.7", "unit": "µM"}]}, {"compound": "CC(=O)OC1CC[C@@]2(C)C(CC(OC3OC(CO)C(O)C(O)C3O)[C@]3(C)C2CCC24CC23CC[C@H]4C(C)CC(O)[C@@H](O)C(C)(C)O)C1(C)C", "note": "(stereo partly specified)", "values": [{"measurement": "TGI", "setting": "CAKI-1 renal", "result": "> 50", "unit": "µM"}, {"measurement": "TGI", "setting": "DLD-1 colon", "result": "> 50", "unit": "µM"}, {"measurement": "TGI", "setting": "DMS 114 small cell lung", "result": 20.6, "unit": "µM"}, {"measurement": "TGI", "setting": "DMS 273 small cell lung", "result": "> 50", "unit": "µM"}, {"measurement": "TGI", "setting": "HOP-62 NSCLC", "result": 40.1, "unit": "µM"}, {"measurement": "TGI", "setting": "KM20L2 colon", "result": "> 50", "unit": "µM"}, {"measurement": "TGI", "setting": "LXFL 529 NSCLC", "result": 16.1, "unit": "µM"}, {"measurement": "TGI", "setting": "M19-MEL melanoma", "result": 16, "unit": "µM"}, {"measurement": "TGI", "setting": "RPMI-8226 leukemia", "result": 24.8, "unit": "µM"}, {"measurement": "TGI", "setting": "SNB-78 CNS", "result": "> 5", "unit": "µM"}, {"measurement": "TGI", "setting": "TK-10 renal", "result": "> 50", "unit": "µM"}]}, {"compound": "O=C(N/C(=C\\c1cc(Cl)ccc1Cl)c1nc2ccccc2[nH]1)c1ccccc1", "values": [{"measurement": "TGI", "setting": "CAKI-1 renal", "result": "> 100", "unit": "µM"}, {"measurement": "TGI", "setting": "DLD-1 colon", "result": 37, "unit": "µM"}, {"measurement": "TGI", "setting": "DMS 114 small cell lung", "result": "> 100", "unit": "µM"}, {"measurement": "TGI", "setting": "KM20L2 colon", "result": "> 100", "unit": "µM"}, {"measurement": "TGI", "setting": "LXFL 529 NSCLC", "result": "> 100", "unit": "µM"}, {"measurement": "TGI", "setting": "M19-MEL melanoma", "result": "> 100", "unit": "µM"}, {"measurement": "TGI", "setting": "SNB-78 CNS", "result": "> 100", "unit": "µM"}, {"measurement": "TGI", "setting": "TK-10 renal", "result": "> 100", "unit": "µM"}]}]}
